According to PubChem BioAssay (NCI):
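Five compound concentrations were applied to cells in 96-well plates for 48 hours; endpoints were derived by simple linear interpolation of the resulting dose-response curve. TGI is the concentration that stops growth completely.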

Columns and labels:
Assay in all cases: NCI-60 cell line screen, 48 h
UACC-257 melanoma = test system: UACC-257 melanoma
COLO 205 colon = test system: COLO 205 colon
BT-549 breast = test system: BT-549 breast
SF-295 CNS = test system: SF-295 CNS
T-47D breast = test system: T-47D breast
M14 melanoma = test system: M14 melanoma
MDA-MB-231 breast = test system: MDA-MB-231 breast
SNB-19 CNS = test system: SNB-19 CNS
HOP-92 NSCLC = test system: HOP-92 NSCLC
SK-MEL-5 melanoma = test system: SK-MEL-5 melanoma
NCI-H522 lung = test system: NCI-H522 lung

| SMILES | TGI (UACC-257 melanoma) | TGI (COLO 205 colon) | TGI (BT-549 breast) | TGI (SF-295 CNS) | TGI (T-47D breast) | TGI (M14 melanoma) | TGI (MDA-MB-231 breast) | TGI (SNB-19 CNS) | TGI (HOP-92 NSCLC) | TGI (SK-MEL-5 melanoma) | TGI (NCI-H522 lung) |
| --- | --- | --- | --- | --- | --- | --- | --- | --- | --- | --- | --- |
| C=C(C1=CC(=O)C(C)(C)O1)[C@@H]1CC=C([C@@H]2CC[C@H]3[C@@]2(C)CC[C@H]2C(C)(C)C(=O)[C@H](O)C[C@]32C)[C@H](O)O1 | 4.52 µM | 3.51 µM | 21.6 µM | 22 µM | 3.41 µM | 3.08 µM | 4.74 µM | 24.8 µM | 4.11 µM | 24.1 µM | – |
| O=C(Cc1cccs1)N[C@@H]1C(=O)N2C(C(=O)OC(c3ccccc3)c3ccccc3)=C(CO)CS[C@H]12 | > 100 µM | > 100 µM | – | > 100 µM | – | > 100 µM | > 100 µM | – | > 100 µM | > 100 µM | > 100 µM |
| N#CC1=C(N)N(c2ccccc2)C(c2ccco2)C1(C#N)C#N (stereo unspecified) | 37.2 µM | 39.2 µM | 37.4 µM | 93.9 µM | 81 µM | 43.4 µM | 35.1 µM | 71.4 µM | – | 32.3 µM | 35.2 µM |
| O=C1C(=Cc2ccc(O)cc2)N=C(c2ccccc2)N1n1c(-c2ccccc2)nc2ccccc2c1=O | > 100 µM | > 100 µM | > 100 µM | > 100 µM | > 100 µM | > 100 µM | > 100 µM | > 100 µM | – | > 100 µM | > 100 µM |
| COc1ccc2c(=O)c(O)c(-c3ccc(OC)c(OC)c3)oc2c1 | > 100 µM | > 100 µM | – | 33.1 µM | > 100 µM | > 100 µM | > 100 µM | > 100 µM | 9.17 µM | > 100 µM | 46 µM |
| C[n+]1c2ccccc2c(/C=N\NS(=O)(=O)c2ccc(O)c(C(=O)O)c2)c2ccccc21 | – | – | – | > 100 µM | – | > 100 µM | – | > 100 µM | > 100 µM | > 100 µM | > 100 µM |
| CNC(=O)C(C)C1CCC2(C)C=CC(=O)C(C)=C2C1O (stereo unspecified) | > 100 µM | > 64.7 µM | – | > 70.8 µM | – | – | – | > 100 µM | > 100 µM | > 60.1 µM | > 100 µM |
| Cc1nc(C(N)=S)sc1/C(CC(=O)C(=O)Nc1cccc2ccc(O)cc12)=N\NC(=O)c1ccncc1 | > 100 µM | > 100 µM | > 100 µM | > 100 µM | – | > 100 µM | > 100 µM | > 100 µM | > 100 µM | > 100 µM | > 100 µM |
| O=C1c2ccccc2C2C1N2C(=O)C(F)(F)F (stereo unspecified) | > 100 µM | > 100 µM | – | > 100 µM | – | > 100 µM | – | > 100 µM | > 100 µM | > 100 µM | > 100 µM |
| Cc1cccc(/C=N/NC(=S)Nc2ccccc2)n1 | 8.1 µM | – | 75 µM | > 100 µM | > 29.2 µM | 8.05 µM | > 26.1 µM | 98.3 µM | > 92.9 µM | > 22.5 µM | – |
| CCN(CC)CCC(=O)Nc1ccc2c(c1)C(=O)c1ccc(NC(=O)CCN(CC)CC)cc1C2=O | 29.7 µM | 14.4 µM | – | 24 µM | – | 27.1 µM | – | 18.6 µM | 30 µM | 19.8 µM | 23.5 µM |
| CC(N)Cc1ccc(C(=O)Cl)cc1 (stereo unspecified) | > 100 µM | > 100 µM | – | > 100 µM | – | > 100 µM | – | – | – | > 100 µM | > 100 µM |
| CCNC(=S)N/N=C/c1cc([N+](=O)[O-])ccc1O | > 100 µM | > 100 µM | > 100 µM | > 100 µM | > 100 µM | > 100 µM | > 100 µM | > 100 µM | – | > 100 µM | 59.3 µM |
| O=C1OCC(O)=C1C(c1ccc(Cl)cc1)c1cc2c(cc1O)OCO2 (stereo unspecified) | – | > 100 µM | > 100 µM | – | – | > 100 µM | > 100 µM | > 100 µM | > 100 µM | > 100 µM | – |
| Cc1ccsc1/C=N/Nc1ncccn1 | > 100 µM | > 100 µM | > 100 µM | > 100 µM | > 100 µM | > 100 µM | > 100 µM | > 100 µM | > 100 µM | > 100 µM | – |
| O=C1CCC23CC(C=CC=C12)n1c(=O)n(-c2ccccc2)c(=O)n13 (stereo unspecified) | > 100 µM | > 100 µM | – | > 100 µM | – | – | – | > 100 µM | > 100 µM | > 100 µM | > 100 µM |
| Cc1ccc(SCC(CSCCO)OCn2cnc3c2NC(N)=NC32OCCO2)cc1 (stereo unspecified) | > 100 µM | – | – | > 100 µM | > 100 µM | > 100 µM | > 100 µM | > 100 µM | > 100 µM | > 100 µM | > 100 µM |
| Cc1cn(C2CC(n3cc(Cn4cc(I)c(=O)[nH]c4=O)nn3)C(CO)O2)c(=O)[nH]c1=O (stereo unspecified) | > 100 µM | > 100 µM | > 100 µM | > 100 µM | > 100 µM | > 100 µM | > 100 µM | > 100 µM | > 100 µM | > 100 µM | – |
| CNC(=O)OCC1=C(COC(=O)NC)C(C)N(c2ccc(OC)cc2)C1 (stereo unspecified) | > 100 µM | > 100 µM | > 100 µM | > 100 µM | > 100 µM | > 100 µM | > 100 µM | > 100 µM | > 100 µM | > 100 µM | – |
| O=C(Nc1ccc(C2=NCCN2)cc1)c1cncc(C(=O)Nc2ccc(C3=NCCN3)cc2)c1 | > 100 µM | > 100 µM | – | > 100 µM | – | – | – | > 100 µM | > 100 µM | > 100 µM | > 100 µM |
| [N-]=[N+]=Nc1cc(=O)oc2ccccc12 | > 100 µM | > 100 µM | – | > 100 µM | – | > 100 µM | – | – | – | > 100 µM | > 100 µM |
| CCC12C=CCN3CCC4(C(=C(C(=O)OC)[C@@H]1O)Nc1ccccc14)C32 (stereo partly specified) | 3.42 µM | 3.22 µM | – | 5.7 µM | – | 5.54 µM | – | 3.8 µM | 4.16 µM | 3.45 µM | 3.06 µM |
